Series [1] is described as follows: Pharmacokinetic activity assay in mice. The series is classed as in vivo. Conditions: IV 1 mg/kg, PO 10 mg/kg. Here is the method: Experimental objective: The test substance was administered to mice via single-dose intravenous and oral gavage routes, and its plasma concentration was measured to evaluate the pharmacokinetic characteristics in mice.
Experimental animals: C57 mice or other available test mice
IV dose: 1 mg/kg; vehicle: 0.5% DMSO or 0.5% MeOH-5% pharmaceutical grade polyethylene glycol-15 hydroxystearate-PBS
Sample collection: 0.03 mL of blood samples were collected from the saphenous vein in experimental animals by puncture at each time point, and the actual blood collection time was recorded. All blood samples were added to commercially available EDTA-K2 anticoagulant tubes with a specification of 1.5 mL (supplied by Jiangsu Kangjian Medical Apparatus Co., Ltd.). After collection, within half an hour, the blood sample was centrifuged at 4° C., 3000 g for 10 min to aspirate the supernatant plasma, which was put in dry ice immediately, and stored in a refrigerator at −80° C. for LCMS/MS analysis.
Blood sampling points: 5 min, 15 min, 30 min, 1 hour, 2 hours, 4 hours, 6 hours, 8 hours, 12 hours, 20 hours, 24 hours.
Test compounds: positive compound LNP023, the final product of Example 158, the final products (compound 159A and compound 159B) of Example 159, and compound 11 of Example 75.

Series [2] has as its system LPS-induced complement activation. Description: In vivo efficacy assay of LPS-induced complement activation in mice. Conditions: female C57BL/6J mice, LPS 100 μg intraperitoneal, PO. Here is the method:
Experimental objective: To investigate the inhibitory effect of the compounds of the present disclosure on complement activation in mice induced by LPS stimulation.
Experimental animals: Female C57BL/6J mice, 7 to 9 weeks old, weighing between 17 to 23 g.
Experimental procedure: 100 μg of lipopolysaccharide (LPS) in Salmonella typhimurium (Sigma) dissolved in 100 μL of sterile PBS was intraperitoneally injected to induce complement activation in mice. Negative control animals were intraperitoneally injected 100 μL of sterile PBS and administered alone by tube feeding (PO). Positive control animals were intraperitoneally injected LPS and PO drug vehicles (0.5% (w/v) methyl cellulose and 0.5% (v/v) Tween 80).
Sample collection: 0.3 mL of blood samples were collected from the orbital venous plexus. All blood samples were added to commercially available EDTA-K2 anticoagulant tubes with a specification of 1.5 mL. After collection, within half an hour, the blood sample was centrifuged at 4° C., 3000 g for 10 min to aspirate the supernatant plasma, which was put in dry ice immediately, and stored in a refrigerator at −80° C. for Western blot analysis of downstream C3d protein levels after complement activation.
Sample analysis: Mouse plasma (5 μL)+Lysis buffer (27.5 μL)+Loading buffer (12.5 μL)+Reducing buffer (5 μL) were mixed well and incubated at 100° C. for 15 min with a loading volume of 5 μL/well, i.e., a loading volume of plasma of 0.5 μL per well.
Test compounds: positive compound LNPO23, the final product of Example 158, the final products (compound 159A and compound 159B) of Example 159, and compound 11 of Example 75.

Series [3] relates to Sheep Anti-Rat Fx1A Serum induced Heymann nephritis. Briefly: In vivo efficacy assay of passive Heymann nephritis in rats. Conditions: male SD rats, intragastric twice a day for 14 days, 5, 20 and 60 mpk; LNP023 60 mpk. From the text: Experimental objective: To investigate the ability of the compounds of the present disclosure to improve renal function of Sheep Anti-Rat Fx1A Serum induced Heymann nephritis in rats, including the evaluation of reducing proteinuria level and improving renal tissue damage.
Experimental animals: Male SD rats, 7 to 10 weeks old, weighing between 200 to 300 g.
Urine was collected from rats on D-2 before administration. On D1, the first day of the experiment, animals in the control group (group 1) were administered 5 mL/kg of Sheep Non-Immune serum via a single tail vein injection; animals in the model and administration groups (groups 2 to 6) were administered 5 mL/kg of Sheep Anti-Rat Fx1A Serum via a single tail vein injection.
The rats were treated by intragastric administration twice a day with an interval of 8 hours and a volume of 10 mL/kg. On D1, 1 hour before modeling, animals in groups 1 and 2 were administered blank vehicle 20% PEG400/10% Solutol/70% water; animals in group 3 were administered LNP023 (60 mpk); animals in groups 4 to 6 were administered different concentrations of synthetic compounds (5 mpk, 20 mpk, and 60 mpk); 8 hours after the first administration, each group was administered again with the same dose and volume as the first administration. From D2 to D14, animals in each group were administered different compounds or vehicles for 14 consecutive days (including the first day) according to the dose, volume, administration method, and frequency on D1.
Urine collection: Urine samples were collected from rats on D-2 before administration, and 2 to 4 hours and 4 to 6 hours after the first administration on D4, D6, D8, D11, and D14 after administration, transferred to EP tubes and stored in a refrigerator at −80° C. to −60° C. for the detection of urine protein and creatinine in rats.
Kidney sample collection: All animals were euthanized with CO2 inhalation anesthesia on Day 15, and bilateral kidneys were collected. The left kidney was cut transversely, and the right kidney was cut longitudinally. Half of the transversely cut kidney (left side) and half of the longitudinally cut kidney (right side) were fixed in formalin (placed in the same EP tube).
4. […] Urine total protein (uTP) in rats was detected without dilution; if exceeding the upper detection limit, it was 10-fold diluted (10 μL of sample+90 μL of saline (0.9% saline)) first (Decrease mode); if still exceeding the upper detection limit after 10-fold dilution, it was 100-fold diluted (2 μL of sample+198 μL of saline (0.9% saline)) (Increase mode). Data were read by the analytical instrument HITACHI LST008AS(P). • (2) Kidney pathological scoring: The degree of drug damage to rat kidneys (paraffin sections) was analyzed by HE staining. […]

A further series has as its target Complement factor B (Homo sapiens, UniProt P00751). Briefly: Optical surface plasmon resonance (SPR) binding affinity assay. (Surface plasmon resonance follows binding to a sensor surface in real time, without labels.)

Sequence of Complement factor B (P00751 26-764): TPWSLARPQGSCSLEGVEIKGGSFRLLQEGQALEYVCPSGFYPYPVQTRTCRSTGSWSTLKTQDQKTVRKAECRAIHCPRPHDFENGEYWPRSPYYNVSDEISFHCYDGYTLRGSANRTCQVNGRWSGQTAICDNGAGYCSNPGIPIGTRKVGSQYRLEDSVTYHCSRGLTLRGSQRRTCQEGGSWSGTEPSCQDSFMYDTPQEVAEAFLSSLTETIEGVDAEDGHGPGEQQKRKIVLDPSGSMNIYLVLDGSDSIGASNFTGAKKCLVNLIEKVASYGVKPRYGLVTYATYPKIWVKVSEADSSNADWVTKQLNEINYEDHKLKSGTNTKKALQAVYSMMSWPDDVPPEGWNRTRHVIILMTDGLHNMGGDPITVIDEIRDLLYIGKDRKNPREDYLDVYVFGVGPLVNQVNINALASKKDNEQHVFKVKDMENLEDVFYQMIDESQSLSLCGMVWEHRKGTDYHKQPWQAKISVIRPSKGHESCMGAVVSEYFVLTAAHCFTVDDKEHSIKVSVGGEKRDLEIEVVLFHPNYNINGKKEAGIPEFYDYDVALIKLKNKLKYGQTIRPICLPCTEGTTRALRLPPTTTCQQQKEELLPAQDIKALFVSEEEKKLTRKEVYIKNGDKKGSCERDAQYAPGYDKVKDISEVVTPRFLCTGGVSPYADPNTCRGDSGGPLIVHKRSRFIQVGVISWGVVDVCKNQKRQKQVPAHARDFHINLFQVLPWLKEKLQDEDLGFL
Description for Complement factor B: The SPR experiment was conducted at 25° C. using PBS buffer supplemented with 0.05% (v/v) P20 and 5% DMSO as the running buffer. The Biacore 8K instrument from GE Healthcare was employed for analysis. The CM3 chip (GE Healthcare) was activated with 400 mM EDC and 100 mM NHS at a flow rate of 30 μL/min for 420 s.

As usually defined, the Kd is a measure of binding affinity in units of concentration. A low value points to tighter binding. For `CCO[C@H]1CCN(Nc2c(OC)cc(C)c3[nH]ccc23)[C@H](c2ccc(C(=O)O)cc2)C1` [Compound 11 of Example 75, 4-((2S,4S)-4-Ethoxy-1-((5-methoxy-7-methyl-1H-indol-4-yl)amino)piperidin-2-yl)benzoic acid], in series [1], the “clearance rate during in vivo metabolism, compared with LNP023” value is on record as “comparable or superior” and the “half-life during in vivo metabolism, compared with LNP023” value (shortened to “half-life during … compared with LNP023”) is listed as “comparable or superior”. Also, in series [2], the “inhibition of LPS-induced complement activation (plasma C3d levels), compared with LNP023” value (“inhibition … compared with LNP023” for short) is “superior or equivalent”. Further, in series [3], the “performance in the kidney disease model through urine and kidney pathology analysis, compared with LNP023” value was “performed better”. The Kd on Complement factor B lay in the range of 5 to 20 nM.
As to `CCCC1CCN(C(=O)c2c(OC)cc(C)c3[nH]ccc23)C(c2ccc(C(=O)O)cc2)C1` (single isomer, unassigned) [Compound 159A], in series [1], the “clearance rate during in vivo metabolism, compared with LNP023” value was “comparable or superior” and the “half-life during … compared with LNP023” value is listed as “comparable or superior”. Also, the “inhibition … compared with LNP023” value in series [2] is given as “superior or equivalent”. The “performance in the kidney disease model through urine and kidney pathology analysis, compared with LNP023” value in series [3] is listed as “performed better”. The Kd on Complement factor B was 5 to 20 nM.
With `CCCC1CCN(C(=O)c2c(OC)cc(C)c3[nH]ccc23)[C@H](c2ccc(C(=O)O)cc2)C1` (mixture of isomers) [Final product of Example 158, 4-((2S)-1-(5-Methoxy-7-methyl-1H-indole-4-carbonyl)-4-propylpiperidin-2-yl)benzoic acid], in series [1], the “clearance rate during in vivo metabolism, compared with LNP023” value is “comparable or superior” and the “half-life during … compared with LNP023” value is listed as “comparable or superior”. In series [2], the “inhibition … compared with LNP023” value is given as “superior or equivalent”. In addition, the “performance in the kidney disease model through urine and kidney pathology analysis, compared with LNP023” value in series [3] is listed as “performed better”. The dissociation constant (Kd) on Complement factor B was 5 to 20 nM.

(Values after patent US20260184689A1, “PIPERIDINE-SUBSTITUTED BENZOIC ACID COMPOUND, AND PHARMACEUTICAL COMPOSITION AND USE THEREOF” (SHANGHAI YISHENG BIOPHARMACEUTICAL COMPANY LIMITED, priority 2022, published 2026).)
